These results are taken from patent publication US20220280594A1, “APPLICATION OF POLYPEPTIDE OR DERIVATIVE THEREOF” (CHENGDU HUITAI BIOMEDICINE CO., LTD., priority 2019, published 2022).

For test [1], the system named is human breast cancer cells (MDA-MB-453). Description: scratch assay, migration of MDA-MB-453 cells. Particulars: MDA-MB-453, 10 μM, 48 hours; control group 32.42 ± 2.04. The class given is cell-based. The method, then: (§1) In the scratch assay, the cell migration rate was negatively correlated with the inhibitory effect of the drug component on tumor cell migration ability. The cell migration inhibition experiment was described as follows: tumor cells were cultured in vitro, cells in logarithmic growth phase were collected and seeded evenly in a 24-well plate at a density of 1-2×10^5 cells/well; the cells were cultured in a cell incubator until a monolayer was formed; a scratch tool was used to make a “-” (straight) scratch on the monolayer of cells; the cells were washed 1-3 times with PBS, and a medium (with 2% fetal bovine serum) containing specific test components was added to the culture. Experimental grouping: PBS control group; polypeptide or derivative thereof treatment group (N1-N54), 10 μM. Three independent parallel wells were set up in each group, and the cells were cultured continuously in a cell incubator for 48 hours. […] At least 3 representative images for each well were taken. ImageJ software was used to count the migration distance of the cells, and the cell migration rate was calculated as: cell migration rate (%)=(width of original scratch−width of current scratch)/width of original scratch×100.
This example was a scratch assay to evaluate the inhibitory effect of the polypeptide or derivative thereof (N1-N54) on the migration ability of human breast cancer cells (MDA-MB-453). The experimental method was as described in Example 2.

Test [2] has as its system human melanoma cells (A375). In words: scratch assay, migration of A375 cells. The class given is cell-based. The following applies: A375, 10 μM, 48 hours; control group 44.03 ± 6.21. The method, then:
as §1
This example was a scratch assay to evaluate the inhibitory effect of the polypeptide or derivative thereof (N1-N54) on the migration ability of human melanoma cells (A375). The experimental method was as described in Example 2.

Test [3] has as its system human lung cancer cells (A549) subcutaneous xenograft. Description: lung cancer subcutaneous xenograft animal model, intravenous injection. The class given is in vivo, mice (BALB/c-nu/nu). The following applies: intravenous 60 mg/kg once every other day, 20 days; for Weight of tumor (g) (mean ± SD): control 2.53 ± 0.17; for Volume of tumor (mm^3) (mean ± SD): control 3373.26 ± 581.44. The method, then: (§2) Experimental animals: 4-6 weeks old female immunodeficiency mice (BALB/c-nu/nu, Beijing Vital River Laboratory Animal Technology Co., Ltd.).
(§3) Subcutaneous xenograft animal model. The number of cells inoculated subcutaneously vin mice was about 2×10^6/200 μL. When the volume of the subcutaneous tumor was greater than 100 mm^3, the mice were randomly divided into groups and subjected to treatment. When the mass volume of the tumors in model control group reached 2000 mm^3 or the animal dies, the treatment ended. The animals were dissected, the tumors were taken out, and the weight and volume of the tumors were measured. During the period of the entire experiment, the mice were observed and the body weight was measured every other day.
The method used in the efficacy test on the lung cancer subcutaneous xenograft animal model was as described in Example 5. The lung cancer cells were the human lung cancer cells (A549), and the route of administration was intravenous injection. This example involved a total of 3 experiments to evaluate N1-N15, N16-N30, and N31-N54 respectively. The experimental procedure, route of administration, dosage and frequency of administration, and detection method were all consistent in the three experiments. The experimental groups were model control group and polypeptide or derivative thereof treatment groups (N1-N15, N16-N30, or N31-N54). The drug dosage of the N1-N54 treatment groups was 60 mg/kg, and the treatment time was 20 days.

The test system is the same in test [4]. Description: lung cancer subcutaneous xenograft animal model, intratumoral injection. Type of test: in vivo, mice (BALB/c-nu/nu). The following applies: intratumoral 5 mg/kg once every other day, 20 days; for Weight of tumor (g) (mean ± SD): control 1.92 ± 0.13; for Volume of tumor (mm^3) (mean ± SD): control 1700.16 ± 305.72. The method, then: as §2, §3
The method used for the drug efficacy test in the animal model of the subcutaneous xenograft derived from lung cancer cells was as described in Example 5. The tumor cells were human lung cancer cells (A549), and the route of administration was intratumoral injection. There were two groups: the model control group and the polypeptide or its derivative treatment group (N1-N12). The drug dosage of the treatment group was 5 mg/kg, once every other day and the treatment time was 10 days.
The procedure of the efficacy test in this example, route and dosage of administration were the same as in Example 9. The peptides used in the experiment were N13-N32. The treatment time was 20 days.

Ends that are not written are not given here. PEG = not defined here

For “N22: SEQ ID NO: 1 with substitution A7R, deletion of three amino acids at the amino terminal and of positions 15-18 (RFLRKENVTQD)”, the “Migration rate (%) (mean ± SD, P)” value in test [1] was 8.54 ± 1.57,** %; in test [2], 5.12 ± 3.69,*** %. In addition, the entries for the “Weight of tumor (g) (mean ± SD)” value in test [3] and in test [4] were 0.89 ± 0.19 g and 0.83 ± 0.33 g, respectively. The “Volume of tumor (mm^3) (mean ± SD)” value in test [3] came out at 1288.08 ± 577.81 mm^3; in test [4], 835.73 ± 184.67 mm^3.

Regarding “N23: SEQ ID NO: 1 with substitution A7R, deletion of position 11 and of positions 15-18 (YRVRFLRKENTQDAED)”, the results for the “Migration rate (%) (mean ± SD, P)” value in test [1] and in test [2] were 18.2 ± 3.53,** % and 11.13 ± 2.15,*** %, respectively. The entries for the “Weight of tumor (g) (mean ± SD)” value in test [3] and in test [4] were 0.65 ± 0.17 g and 0.83 ± 0.29 g, respectively. Besides, the figures for the “Volume of tumor (mm^3) (mean ± SD)” value in test [3] and in test [4] were 993.11 ± 298.65 mm^3 and 838.73 ± 218 mm^3, respectively.

Take “N24: SEQ ID NO: 1 with substitution A7R, deletion of positions 1-2 and of position 18 (VRFLRKENVTQDAED)”: the results for the “Migration rate (%) (mean ± SD, P)” value in test [1] and in test [2] were 15.84 ± 4.44,* % and 15.79 ± 4.16,** %, respectively. Besides, the “Weight of tumor (g) (mean ± SD)” value in test [3] stood at 0.81 ± 0.25 g; in test [4] it was 0.83 ± 0.29 g. For the same substance, the “Volume of tumor (mm^3) (mean ± SD)” value was 1099.3 ± 512.53 mm^3 in test [3] and 908.37 ± 256.24 mm^3 in test [4].

In the case of “N25: SEQ ID NO: 1 with substitution N18R and addition of two amino acids at the carboxyl terminal (YRVRFLAKENVTQDAEDRCT)”, the “Migration rate (%) (mean ± SD, P)” value in test [1] is on record as 21.05 ± 2.53,* %; in test [2] it was 17.67 ± 2.41,** %. In addition, the “Weight of tumor (g) (mean ± SD)” value in test [3] was 0.69 ± 0.21 g; in test [4] it was 0.71 ± 0.18 g. For the same substance, the “Volume of tumor (mm^3) (mean ± SD)” value was found to be 1169.92 ± 572.47 mm^3 in test [3] and 958.87 ± 351.9 mm^3 in test [4].

As to “N26: SEQ ID NO: 1 with substitution A15R, addition of one amino acid at the amino terminal and one at the carboxyl terminal (FYRVRFLAKENVTQDREDNC)”, the “Migration rate (%) (mean ± SD, P)” value is listed as 6.19 ± 1.42,*** % in test [1] and 12.23 ± 2.48,*** % in test [2]. Further, the “Weight of tumor (g) (mean ± SD)” value in test [3] came to 0.57 ± 0.22 g; in test [4] it was 0.8 ± 0.22 g. Further, the figures for the “Volume of tumor (mm^3) (mean ± SD)” value in test [3] and in test [4] were 1163.91 ± 457.09 mm^3 and 1053.55 ± 175.83 mm^3, respectively.

For “N27: SEQ ID NO: 1 with addition of one amino acid at the carboxyl terminal and PEG modification at the carboxyl terminal (YRVRFLAKENVTQDAEDNC-{PEG}; reading uncertain)”, the entries for the “Migration rate (%) (mean ± SD, P)” value in test [1] and in test [2] were 21.24 ± 3.73,* % and 12.52 ± 3.78,*** %, respectively. Also, the “Weight of tumor (g) (mean ± SD)” value in test [3] is 1.14 ± 0.23 g; in test [4], 0.95 ± 0.22 g. Also, the “Volume of tumor (mm^3) (mean ± SD)” value is recorded as 1402.37 ± 405.66 mm^3 in test [3] and 1059.51 ± 161.22 mm^3 in test [4].

Turning to “N28: SEQ ID NO: 1 with deletion of positions 1-2 and 18 and PEG modification at the amino terminal ({PEG}-VRFLAKENVTQDAED; reading uncertain)”, the “Migration rate (%) (mean ± SD, P)” value in test [1] is 11.32 ± 5.61,** %; in test [2] it was 10.80 ± 2.66,*** %. The “Weight of tumor (g) (mean ± SD)” value was determined as 0.91 ± 0.21 g in test [3] and 0.81 ± 0.24 g in test [4]. Moreover, the “Volume of tumor (mm^3) (mean ± SD)” value is 1286.52 ± 344.21 mm^3 in test [3] and 1055.02 ± 222.45 mm^3 in test [4].
